Measured values from publication PMC4296562 (Analytical biochemistry, 2014).

Experiments:
MurX [1] = target: T1, MurX (Mycobacterium tuberculosis, UniProt P9WMW7); assay type: biochemical; settings: for MurX inhibition (%) 0.1 μM: inhibitor 0.1 μM; for MurX inhibition (%) 0.1 μM / MurX inhibition (%) 1 μM / MurX inhibition (%) 10 μM / MurX inhibition (%) 100 μM: 2 75 μM, neryl phosphate 6, P-60, 26 °C, 3h; for MurX inhibition (%) 1 μM: inhibitor 1 μM; for MurX inhibition (%) 10 μM: inhibitor 10 μM; for MurX inhibition (%) 100 μM: inhibitor 100 μM; for IC50: neryl phosphate assay, obtained three times, ± standard error of the mean
T1 sequence (P9WMW7 whole entry): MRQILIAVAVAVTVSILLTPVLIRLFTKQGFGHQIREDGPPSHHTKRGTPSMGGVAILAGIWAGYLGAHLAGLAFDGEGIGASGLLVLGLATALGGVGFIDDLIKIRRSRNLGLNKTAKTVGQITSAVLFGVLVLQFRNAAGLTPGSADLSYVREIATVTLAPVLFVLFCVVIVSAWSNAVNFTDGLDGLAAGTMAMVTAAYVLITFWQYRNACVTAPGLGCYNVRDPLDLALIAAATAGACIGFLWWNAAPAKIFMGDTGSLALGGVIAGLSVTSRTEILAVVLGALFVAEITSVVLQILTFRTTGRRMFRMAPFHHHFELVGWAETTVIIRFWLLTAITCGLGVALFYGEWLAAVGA

MraY-MurG = settings: no reference given; cited from earlier work
MurX [2] = target: T1, MurX
Water-solubility = assay type: physicochemical

Compound	MurX inhibition (%) 0.1 μM (MurX [1]) [%]	MurX inhibition (%) 1 μM (MurX [1]) [%]	MurX inhibition (%) 10 μM (MurX [1]) [%]	MurX inhibition (%) 100 μM (MurX [1]) [%]	other results
CO[C@H]1[C@@H](O)[C@H](n2ccc(=O)[nH]c2=O)O[C@@H]1[C@@H](O[C@H]1OC(C(=O)N[C@H]2CCCCNC2=O)=C[C@H](O)[C@@H]1O)C(N)=O [Capuramycin (7), Capuramycin]	36.6	88.4	100	100	
CN[C@H](CC(C)C)C(=O)N[C@H]1C(=O)N[C@@H](CC(N)=O)C(=O)N[C@H]2C(=O)N[C@H]3C(=O)N[C@H](C(=O)N[C@H](C(=O)O)c4cc(O)cc(O)c4-c4cc3ccc4O)[C@H](O)c3ccc(c(Cl)c3)Oc3cc2cc(c3O[C@@H]2O[C@H](CO)[C@@H](O)[C@H](O)[C@H]2O[C@H]2C[C@](C)(N)[C@H](O)[C@H](C)O2)Oc2ccc(cc2Cl)[C@H]1O [Vancomycin]	0	0	0	0	MurX inhibitory activity (MurX [1]; even at 100 μM concentrations): did not inhibit MurX; activity in MraY-MurG coupled assays (MraY-MurG): good activity
CC(C)=CCC/C(C)=C\COP(=O)(O)O [compound 6, neryl phosphate]					IC50 (MurX [1]): 152 nM
N-glycolyl Park’s nucleotide-N^ε-dansylthiourea [compound 1]					Km (MurX [2]): 18.1 µM
Park’s nucleotide-N^ε-dansylthiourea [compound 2]					Km (MurX [2]): 17.9 µM; Vmax for neryl-lipid I synthesis by MurX (MurX [2]): 0.00269 µM/s
Tunicamycin [Tunicamycin (9)]	9	42	72	72	IC50 (MurX [1]): 2730 ± 138 nM
neryl-lipid I-N^ε-dansylthiourea [compound 5]					water-solubility (Water-solubility): > 50 µg/mL
